Results: article PMC3858832 (Journal of Controlled Release, 2013)
Where no end group is shown, it is not given here.

Legend:
[1] = Far-UV circular dichroism pH titration, midpoint of conformational transition (pKα); format: physicochemical; conditions: far-UV CD intensity at 220 nm vs pH; peptide 30-50 μM in 5 mM Tris amine titrated with HClO4; 37 °C (310 K); average of two or more independent experiments
Source text: Therefore, we first investigated whether reducing hydrogen-bonding opportunities at the Dap side chain amine would improve its tolerance by cells in culture. Alkylation of the Dap primary amine may however also impact on the pKa. […] Measurement of side chain pKa in a peptide undergoing a conformational transition associated with a change in aggregation state is hindered by the large amounts of material required for potentiometric analyses and the unfavourable line broadening observed in NMR for self-associated peptides. Instead, we have observed the cooperative, pH responsive, change of conformation of cationic amphipathic peptides in aqueous solution using far-UV CD (Supp. Fig. 1B/C). LADap (Sup. Fig. 1B) and LADap(Me2) (Supp. Fig. 1C) adopt an α-helix conformation when dissolved in neutral or slightly basic aqueous solution and, when titrated with acid, an increasingly disordered conformation is observed. The CD intensity at 220 nm is considered indicative of α-helix content and can be plotted as a function of pH (Supp. Fig. 1D/E). […] Although other interactions may be expected to contribute to the pKα when compared with the pKa, an increase of the same magnitude (~ 0.6 pH units) is seen in both the pKα for the Dap rich peptide and the pKa for the model compound following dimethylation (Supp. Fig. 1D/E; Table 1).
Far-UV CD spectra were obtained for LAH4-L1, LAH6-L1 and the Dap and mono-methyl Dap containing analogues in aqueous Tris amine buffer at various pH (Supp. Fig. 4). […] For LAH4-L1, the pKα = 5.29 ± 0.25 and is in agreement with previous work while pKα = 4.45 ± 0.25 for LAH6-L1 is substantially higher than that reported recently for LAH6 peptides of greater hydrophobicity. The response of LADap4-L1 at 6.64 ± 0.08 is substantially more basic than the histidine-containing analogue. […]
Circular dichroism experiments - Peptides were dissolved in 5 mM Tris amine without pH adjustment at a final concentration of between 30 and 50 μM. The samples were titrated down by adding 0.3% or 1% (v/v) HClO4 solution in micro-litre amounts. ClO4- is optically […]
by HClO4 makes a significant improvement on spectral quality in the far-UV region. CD spectra were acquired on a Chirascan™ Spectrometer (Applied Photophysics, Leatherhead, UK) with samples maintained at 310 K. For pH titration experiments, far-UV CD spectra were obtained with the samples titrated down by adding 0.3% or 1% (v/v) HClO4 solution in micro-litre amounts. Spectra were recorded from 260 to 180 nm using a 0.5 mm path length and were processed using Chirascan software where a spectrum of the peptide free solution was subtracted and Savitzky-Gorlay smoothing with a convolution width of 5 points applied.
Results for all CD assay measurements are expressed as an average of two or more independent repeated experiments. […]
The pellets, containing lipid vesicles and associated peptides were transferred to Bruker 4 mm MAS rotors for NMR measurements. Lipid vesicles were also prepared in this way in the absence of peptide.
Solid-state NMR - 2H quadrupole echo experiments for samples containing either POPC-d31 or POPS-d31 were performed at 61.46 MHz on a Bruker Avance 400 NMR

A549 cells [2] = experiment: Luciferase reporter gene transfection of A549 cells; format: cell-based, human; conditions: light units per well
Source text: The ability of the peptides to mediate nucleic acid transfer was first assessed by monitoring the delivery of luciferase reporter gene to both A549 and MCF-7 human breast cancer cells (Fig. 2A). Lipofectamine 2000™ was used here as a benchmark and at an optimised volume to weight DNA ratio of 2:1 to minimise toxicity seen in the earlier experiments (Supp. Fig. 1H).
(§3) Further Materials - Dulbecco’s modified eagle medium (DMEM), RPMI-1640 medium,
(§4) Opti-MEM 1 reduced serum medium, antibiotic-antimycotic liquid, fetal bovine serum (FBS)
(§5) and Lipofectamine 2000™ were purchased from Invitrogen (CA, USA). The luciferase assay
(§6) system was purchased from Promega (Madison, WI, USA).
Plasmid DNA (gWIZ™ Luciferase) was
(§7) Cell culture and DNA transfection - A549, MCF-7 and THP-1 cells were obtained from
(§8) ATCC (Manassas, VA, USA). The cells were maintained at 5% CO2, 37°C in DMEM
(§9) supplemented with 10% FBS, 100 units/ml penicillin, 100 μg/ml streptomycin and 0.25
(§10) μg/ml amphotericin B. The cells were subcultured once weekly. Cells were transfected with
(§11) peptide/DNA complexes at 1 μg luciferase /well in 24-well plates and with peptide to DNA
(§12) seeding density was 5 × 10^4 cells per well. The complexes were prepared in Opti-MEM I
reduced serum medium. After 4 hours of incubation at 37°C, the cells were washed with PBS […]
luciferase expression was detected using the luciferase assay system according to the […]

[3] = system: GAPDH expression in A549 cells; experiment: siRNA-mediated silencing of GAPDH expression in A549 cells (Western blot densitometry), with or without BALF; format: cell-based, human; conditions: Western blot densitometry 72 h post transfection
Experimental: (§13) The abilities of the peptides to successfully mediate specific silencing of GAPDH expression were then assessed in A549 cells (Fig. 2B), MCF-7 cells (Fig. 2C), HUVEC (Fig. 3A), THP-1 cells differentiated into macrophages (Fig. 4A) and undifferentiated THP-1 cells in suspension (Fig. 4B). Specific reductions in expression of GAPDH were assessed by densitometry of Western blots where the effects of administering siRNA targeting GAPDH was compared with that of non-targeting siRNA on the expression of GAPDH as endogenous reporter and β-actin as internal toxicity/specificity control (Figs. 2D, 3B, 4C).
To test the suitability of the peptides for future pulmonary delivery applications in vivo the ability of the peptides to mediate silencing of GAPDH expression in A549 cells was repeated in the presence of bronchoalveolar lavage fluid (BALF) as a model for airway surface liquid (ASL) (Fig. 2E/F).
(§14) siRNA transfection - A549, MCF-7 and THP-1 cells, were transfected with peptide/siRNA
complexes containing 50 or 100 pmol GAPDH siRNA or negative control siRNA/well in 6-
well plates, giving a final siRNA concentration of 50 or 100 nM. Cells were seeded at the
following densities; A549 and MCF-7 - 1 × 10^5 cells per well, THP-1 in suspension – 5 ×
10^5 cells per well, differentiated THP-1 – 1 × 10^6 cells per well.

MCF-7 cells = experiment: Luciferase reporter gene transfection of MCF-7 cells; format: cell-based, human; conditions: 1 μg luciferase plasmid/well, 48 h
Source text: The ability of the peptides to mediate nucleic acid transfer was first assessed by monitoring the delivery of luciferase reporter gene to both A549 and MCF-7 human breast cancer cells (Fig. 2A).
as §3, §4, §5, §6
Plasmid DNA (gWIZ™ Luciferase) was
as §7, §8, §9, §10, §11, §12
reduced serum medium. After 4 hours of incubation at 37°C, the cells were washed with PBS
and fresh DMEM supplemented with 10% FBS were added to the cells. After 48 hours, the
luciferase expression was detected using the luciferase assay system according to the
manufacturer’s protocol. The cells were transfected with Lipofectamine 2000™ at 2 μl per […]

A549 cells [4] = experiment: Protein content per well as measure of cytotoxicity during transfection of A549 cells; format: cell-based, human; conditions: luciferase plasmid transfection, compared with LADap(Me2)
Source text: The pKα of LADap(Me2) is raised by N,N-dimethylation and is likely to be too high to substantially aid endosomal release; dimethylation nevertheless has beneficial effects on the nucleic acid transfer properties of the resulting peptide. […] However, the protein content of the cells, commonly used to calibrate the amount of specific luciferase activity, can be misleading. […] Accordingly, the transfection efficacies of LADap and Lipofectamine 2000™ (4:1) in this experiment are substantially overstated. When luciferase activity is plotted per well (Supp. Fig. 1H), not only is the robust and non-toxic transfection efficacy of LAH4-L1 evident, offering a 13.0 fold improvement over Lipofectamine 2000™, but also the advantages of LADap(Me2) over LADap are clear. The luciferase delivery efficacy of LADap(Me2) however was insufficient for it to be considered for siRNA delivery and further modifications were conceived.
Luciferase Activity (light units/10 s)
Luciferase Activity (light units/10 s/mg protein)
Mean Residue Ellipticity @220 nm (deg cm […]
Supplementary Figure 1. […] The midpoint of the conformational transition is determined as 6.22 ± 0.16 for LADap4 (D) and 6.80 ± 0.11 for LADap(Me2)4 (E). […] Lipofectamine and LADap4 are toxic to A549 cells but the N,N-dimethylation of Dap (LADap(Me2)4) reduces toxicity and increases gene transfer efficacy despite the high pKα determined in […]

[5] = Analytical HPLC retention time as indicator of peptide hydrophobicity; format: physicochemical; conditions: 5-90% water/acetonitrile gradient, Waters Symmetry C8, 5 μm, 7.8 x 100 mm, Abs 215 nm
Experimental: (§1) A further six N,N-dimethyl-Dap variant, LADap(Me2)6-A1 was prepared in an attempt to circumvent this by reducing the hydrophobicity by substituting four leucines with alanine.
Supplementary Figure 5. Analytical HPLC of three Dap rich peptides with differing levels of alkylation. A 5-90% water/acetonitrile gradient system was used using a Waters Symmetry™ C8, 5 μm, 7.8 x 100 mm column. The N-methylation of LADap-6-L1 to LADap(Me)6-L1 reduces the retention time of the peptide marginally however N,N-dimethylation to LADap(Me2)6-L1 causes a substantial shift to longer retention time and is consistent with the insolubility of this latter peptides in aqueous media. A fourth peptide, […]
alanine residues did improve hydrophobicity but not sufficiently to make the peptide readily soluble in […]
(§2) (1 picture or pasted object on this page, not shown here)

[6] = Solubility in aqueous media / 50% trifluoroethanol; format: physicochemical
Experimental: as §1
Supplementary Figure 6. far-UV CD spectrum of LADap(Me2)6-L1 in 50% TFE.
A further six N,N-dimethyl-Dap variant, LADap(Me2)6-A1 was prepared in an attempt to circumvent this by reducing the hydrophobicity by substituting four leucines with alanine. While a small improvement in […]
spectrum was obtained (Supp. Fig. 6) which indicated the desired α-helix conformation would theoretically be obtainable if it could be delivered to the endosomal membrane.
as §2

[7] = system: GAPDH expression in suspension monocyte THP-1 cells; experiment: siRNA-mediated silencing of GAPDH expression in suspension monocyte THP-1 cells (Western blot densitometry); format: cell-based, human; conditions: siRNA at 20 or 40 nM, peptide/siRNA 10:1 w/w, Western blot 72 h, three independent experiments
Experimental: as §13
Cells were transfected with peptide/siRNA complexes containing GAPDH siRNA (+) or negative control siRNA (−) and β-actin served as an internal control for equal protein loading and off target effects. Densitometry results are shown for as an average of three independently repeated experiments (C). […] Vectors were prepared as for siRNA transfection experiments and the peptide to siRNA weight ratio was 10:1 in all cases.
The cells were transfected with Lipofectamine 2000™ at 2 μl per
well under the same conditions.
as §14
complexes containing 50 or 100 pmol GAPDH siRNA or negative control siRNA/well in 6- […]
The bound secondary antibodies were detected with ECL™ Western blotting detection […]

Substance: KKALLAHALHLLALLALHLAHALKKA-NH2 [LAH4-L1, reference compound]
- pKα at 37 °C (midpoint of the main conformational transition) [1]: 5.29 ± 0.25
- fold improvement in luciferase activity per well over Lipofectamine 2000 (4:1) (A549 cells [2]): 13.0 fold
- reduction of GAPDH expression (silencing) ([3]; 50% BALF): 29.4 ± 11.8%
- reduction of GAPDH expression (silencing) ([3]; Opti-MEM I): 73.5 ± 3.7%

Substance: KKALLAXALXLLALLALXLAXALKKA-NH2 [LADap4-L1, LAH4-L1 derivative comprising four Dap residues]
- pKα at 37 °C (midpoint of the main conformational transition) [1]: 6.64 ± 0.08

Substance: KKALLAXALXLLALLALXLAXALKKA-NH2 [LADap(Me)4-L1, LAH4-L1 derivative comprising four N-methylated Dap residues]
- pKα at 37 °C (midpoint of the main conformational transition) [1]: 6.62 ± 0.04
- fold improvement in luciferase expression over LADap4-L1 (MCF-7 cells): 4.1 fold
- fold improvement in luciferase expression over LAH4-L1 (MCF-7 cells): 2.0 fold

Substance: KKHLLAHLLHLLALLALHLLHALKHK-NH2 [LAH6-L1]
- pKα at 37 °C (midpoint of the main conformational transition) [1]: 4.45 ± 0.25

Substance: KKLAHALHLLALLWLHLAHALKKA-NH2 [reference compound]
- pKα at 37 °C (midpoint of the main conformational transition) [1]: 5.33

Substance: KKLAXALXLLALLWLXLAXALKKA-NH2 [LADap(Me2), 24-residue cationic amphipathic peptide with four N,N-dimethyl-Dap residues]
- pKα at 37 °C (midpoint of the main conformational transition) [1]: 6.80 ± 0.11

Substance: KKLAXALXLLALLWLXLAXALKKA-NH2 [LADap, 24-residue cationic amphipathic peptide with four Dap residues]
- cytotoxicity by protein content of wells (A549 cells [4]): notably more toxic
- pKα at 37 °C (midpoint of the main conformational transition) [1]: 6.22 ± 0.16

Substance: KKXLLAXALXALLALLAXLAXALKXK-NH2 [LADap(Me2)6-A1, more hydrophilic six N,N-dimethyl-Dap variant, four leucines substituted with alanine]
- HPLC retention time (measure of hydrophobicity) [5]: 28.37 min
- solubility in aqueous media [6]: insufficiently soluble

Substance: KKXLLAXLLXLLALLALXLLXALKXK-NH2 [LADap6-L1, 26-residue peptide with six Dap residues]
- pKα at 37 °C (midpoint of the main conformational transition) [1]: 5.67 ± 0.17

Substance: KKXLLAXLLXLLALLALXLLXALKXK-NH2 [LADap(Me2)6-L1, 26-residue peptide with six N,N-dimethyl-Dap residues]
- solubility in 50% trifluoroethanol ([6]; 50% trifluoroethanol): soluble in 50% trifluoroethanol
- solubility in aqueous media [6]: insoluble in aqueous media

Substance: KKXLLAXLLXLLALLALXLLXALKXK-NH2 [LADap(Me)6-L1, 26-residue peptide with six N-methyl Dap residues]
- reduction of GAPDH expression [7]: 92.3 ± 3.7%
- reduction of GAPDH expression (silencing) ([3]; Opti-MEM I): 88.0 ± 6.8%
